US11358936B2, “Lysyl oxidase-like 2 inhibitors and uses thereof” (PharmAkea, Inc., priority 2015, dated 2022)
Where a name gives a salt, the structure may show the parent alone. Read-outs that look alike come from different tables or passages of the source.

Molecular target: human LOXL2 (Homo sapiens (Human), UniProt Q9Y4K0)
Assay: Human LOXL2 Amine Oxidase Activity Assay (Amplex Red fluorescence)
Format: biochemical
Settings: 2 h at 37° C. preincubation, DAP substrate
Protocol: LOXL2 amine oxidase activity is evaluated by measuring Amplex Red fluorescence using 10-20× concentrated conditioned media from CHO cells stably expressing human LOXL2. To assay for amine oxidase activity, 10 μL of the concentrated conditioned media is incubated with 2 μL of test compound in DMSO and 73 μL Assay Buffer (50 mM Borate Buffer, pH8) for 2 h at 37° C. After the 2 h incubation, 5 μl of 10 mM 1,5-Diaminopentane (DAP) diluted in Assay Buffer and 10 μl of Amplex Red Mix (8.5 μl Assay Buffer+0.5 μl of 10 mM Amplex Red+1 μl of 500 U/ml Horseradish Peroxidase) are added and the plate mixed and immediately placed on the FlexStaion for fluorescence measurements. Fluorescence is read in kinetic mode every 2 min for 1 hour at excitation=544 and emission=590. The amine oxidase activity is calculated from the slope of the linear portion of the curve.

[1] = concentrated conditioned media from CHO cells stably expressing human LOXL2, read-out: IC50

human LOXL2, sequence (Q9Y4K0 26-774): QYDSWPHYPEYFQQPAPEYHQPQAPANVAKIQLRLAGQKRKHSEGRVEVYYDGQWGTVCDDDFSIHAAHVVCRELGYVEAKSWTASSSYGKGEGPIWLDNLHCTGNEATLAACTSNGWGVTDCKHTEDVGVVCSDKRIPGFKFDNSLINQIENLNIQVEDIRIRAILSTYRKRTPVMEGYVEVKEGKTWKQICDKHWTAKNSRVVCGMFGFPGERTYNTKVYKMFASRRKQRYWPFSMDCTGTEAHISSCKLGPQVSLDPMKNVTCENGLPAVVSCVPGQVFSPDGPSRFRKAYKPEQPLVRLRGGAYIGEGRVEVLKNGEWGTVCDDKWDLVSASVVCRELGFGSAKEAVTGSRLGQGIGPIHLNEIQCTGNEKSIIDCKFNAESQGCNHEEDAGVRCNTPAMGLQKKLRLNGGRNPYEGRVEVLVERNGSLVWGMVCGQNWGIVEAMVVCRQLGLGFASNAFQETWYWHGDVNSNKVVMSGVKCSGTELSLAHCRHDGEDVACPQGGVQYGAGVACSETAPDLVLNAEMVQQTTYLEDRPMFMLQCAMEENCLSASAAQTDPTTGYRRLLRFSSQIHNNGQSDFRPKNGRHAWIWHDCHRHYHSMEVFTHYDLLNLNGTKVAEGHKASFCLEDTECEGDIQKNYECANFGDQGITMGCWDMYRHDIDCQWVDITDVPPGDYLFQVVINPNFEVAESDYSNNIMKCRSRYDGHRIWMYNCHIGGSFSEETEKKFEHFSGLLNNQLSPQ

SMILES | IC50 [1] [nM] | IC50 (IC50, concentrated conditioned media from CHO cells stably expressing human LOXL2) [nM]
NCc1ccnc(-c2cccc(C(=O)O)c2)c1 [Compound 2-5, hydrochloride] | 300 to 1000 | 
NCc1ccnc(Oc2ccc(C(=O)N3CCC(O)(C(F)(F)F)C3)cc2)c1 (racemic) [Compound 1-12, Racemic-4-((4-aminomethyl)pyridin-2-yl)oxy)phenyl)(3-hydroxy-3-(trifluoromethyl)pyrrolidin-1-yl)methanone hydrochloride] | < 300 | 
NCc1ccnc(OC2CCCCC2)c1 [Compound 4-7, 2-Cyclohexyloxy-4-(aminomethyl)pyridine] | < 300 | 
CCN1CCN(c2cc(CN)ccn2)CC1 [Compound 4-12, 2-(4-Ethylpiperazin-1-yl)-4-(aminomethyl)pyridine] | > 1000 | 
NCc1cc(Oc2cccc(Oc3ccccc3)c2)nc(-c2ccc(F)cc2)c1 [Compound 3-3, (2-(4-Fluorophenyl)-6-(3-phenoxyphenoxy)pyridin-4-yl)methanamine trifluoroacetate] | 300 to 1000 | 
NCc1ccnc(N2CCCC2)c1 [Compound 4-10, 2-(1-Pyrrolidino)-4-(aminomethyl)pyridine] | > 1000 | 
COCCNC(=O)c1ccc(Oc2cc(CN)ccn2)cc1 [Compound 1-11, 4-((4-(Aminomethyl)pyridin-2-yl)oxy)-N-(2-methoxyethyl)benzamide hydrochloride] | 300 to 1000 | 
NCc1ccnc(Oc2ccc(C(=O)O)cc2)c1 [Compound 2-9, 4-((4-(Aminomethyl)pyridin-2-yl)oxy)benzoic acid hydrochloride] | 300 to 1000 | 
NCc1ccnc(NC(=O)CC(F)(F)F)c1 [Compound 4-14, trifluoroacetate] |  | 300 to 1000
NCc1ccnc(-c2ccc(C(=O)O)cc2)c1 [Compound 2-6, 4-(4-Aminomethyl)pyridin-2-yl)benzoic acid trifluoroacetate] | 300 to 1000 | 
NCc1ccncc1F [Compound 4-2, 3-Fluoro-4-(aminomethyl)pyridine] | 300 to 1000 | 
NCc1ccnc(C(=O)N2CCC(O)(C(F)(F)F)C2)c1 (racemic) [Compound 2-40, Racemic-(4-(aminomethyl)pyridin-2-yl)(3-hydroxy-3-(trifluoromethyl)pyrrolidin-1-yl)methanone hydrochloride] | < 300 | 
NCc1ccnc(N2C[C@@H](O)[C@H](F)C2)c1 (racemic) [Compound 2-1] | > 1000 | 
COCCNc1cc(CN)cc(Oc2cccc(Oc3ccccc3)c2)n1 [Compound 3-2, 4-(Aminomethyl)-N-(2-methoxyethyl)-6-(3-phenoxyphenoxy)pyridin-2-amine trifluoroacetate] | 300 to 1000 | 
NCc1ccnc(Oc2cccc3c2ccn3CC(=O)N2CCCCC2)c1 [Compound 2-27, 2-(4-((4-(Aminomethyl)pyridin-2-yl)oxy)-1H-indol-1-yl)-1-(piperidin-1-yl)ethanone hydrochloride] | < 300 | 
NCc1ccnc(-c2cccc(C(=O)Nc3cc(Cl)cc4[nH]ccc34)c2)c1 [Compound 1-10, 3-(4-(Aminomethyl)pyridin-2-yl)-N-(6-chloro-1H-indol-4-yl)benzamide hydrochloride] | < 300 | 
NCc1ccnc(Oc2cccc(C(=O)NCc3ccc(-n4ccnc4)c(F)c3)c2)c1 [Compound 1-37, 3-((4-(Aminomethyl)pyridin-2-yl)oxy)-N-(3-fluoro-4-(1H-imidazol-1-yl)benzyl)benzamide dihydrochloride] | < 300 | 
NCc1ccnc(-c2ccc(F)cc2)c1 [Compound 2-4, (2-(4-Fluorophenyl)pyridin-4-yl)methanamine] | < 300 | 
NCc1ccnc(Oc2cccc(C(=O)Nc3ccc(C(=O)O)cc3)c2)c1 [Compound 1-29, 4-(3-((4-(Aminomethyl)pyridin-2-yl)oxy)benzamido)benzoic acid hydrochloride] | < 300 | 
Cn1cc(-n2ccc3c(Oc4cc(CN)ccn4)cccc32)cn1 [Compound 2-19, (2-((1-(1-Methyl-1H-pyrazol-4-yl)-1H-indol-4-yl)oxy)pyridin-4-yl)methanamine hydrochloride] | < 300 | 
NCc1ccnc(Oc2cccc(C(=O)Nc3cccc(C(=O)O)c3)c2)c1 [Compound 1-28, 3-(3-((4-(Aminomethyl)pyridin-2-yl)oxy)benzamido)benzoic acid hydrochloride] | < 300 | 

The next lines start with results.

IC50 [1] [nM] | SMILES | IC50 (IC50, concentrated conditioned media from CHO cells stably expressing human LOXL2) [nM]
< 300 | NCc1ccnc(Oc2cccc(C(=O)N[C@@H](CO)c3ccccc3)c2)c1 [Compound 1-36, (R)-3-((4-Aminomethyl)pyridin-2-yl)oxy)-N-(2-hydroxy-1-phenylethyl)benzamide hydrochloride] | 
< 300 | COc1ccc(Cn2c(C)cc3c(Oc4cc(CN)ccn4)cccc32)cn1 [Compound 2-13, (2-((1-((6-Methoxypyridin-3-yl)methyl)-2-methyl-1H-indol-4-yl)oxy)pyridin-4-yl)methanamine trifluoroacetate] | 
< 300 | NCc1ccnc(Oc2ccc(C(=O)NCc3ccccc3)cc2)c1 [Compound 1-14, 4-((4-(Aminomethyl)pyridin-2-yl)oxy)-N-benzylbenzamide hydrochloride] | 
< 300 | NCc1ccnc(Oc2cccc3c2ccn3-c2ccc(F)cc2)c1 [Compound 2-18, (2-((1-(4-Fluorophenyl)-1H-indol-4-yl)oxy)pyridin-4-yl)methanamine hydrochloride] | 
< 300 | NCc1ccnc(Oc2cccc3c2ccn3Cc2ccccc2)c1 [Compound 2-10, (2-((1-Benzyl-1H-indol-4-yl)oxy)pyridin-4-yl)methanamine hydrochloride] | 
< 300 | NCc1ccnc(Oc2cccc3c2ccn3Cc2cnc(C(F)(F)F)s2)c1 [Compound 2-17, (2-((1-((2-(Trifluoromethyl)thiazol-5-yl)methyl)-1H-indol-4-yl)oxy)pyridin-4-ylmethanamine hydrochloride] | 
< 300 | NCc1ccnc(Oc2cccc(C(=O)NCCc3ccccc3)c2)c1 [Compound 1-40, 3-((4-(Aminomethyl)pyridin-2-yl)oxy)-N-phenethylbenzamide hydrochloride] | 
< 300 | COc1ccc(Cn2cc(C)c3c(Oc4cc(CN)ccn4)cccc32)cn1 [Compound 2-14, (2-((1-((6-Methoxypyridin-3-yl)methyl)-3-methyl-1H-indol-4-yl)oxy)pyridin-4-yl)methanamine trifluoroacetate] | 
< 300 | NCc1ccnc(Oc2cccc(C(=O)NCc3cccc(C(=O)O)c3)c2)c1 [Compound 1-35, 3-((3-((4-Aminomethyl)pyridin-2-yl)oxy)benzamido)methyl)benzoic acid hydrochloride] | 
< 300 | NCc1ccnc(Oc2cccc(C(=O)Nc3ccc(C(F)(F)F)cc3)c2)c1 [Compound 1-22, 3-((4-(Aminomethyl)pyridin-2-yl)oxy)-N-(4-(trifluoromethyl)phenyl)benzamide hydrochloride] | 
< 300 | COC(=O)c1ccc(CNC(=O)c2cccc(Oc3cc(CN)ccn3)c2)cc1 [Compound 1-33, Methyl 4-((3-((4-(aminomethyl)pyridin-2-yl)oxy)benzamido)methyl)benzoate hydrochloride] | 
< 300 | N=C(N)c1cccc(CNC(=O)c2cccc(Oc3cc(CN)ccn3)c2)c1 [Compound 1-39, 3-((4-(Aminomethyl)pyridin-2-yl)oxy)-N-(3-carbamimidoylbenzyl)benzamide dihydrochloride] | 
< 300 | COCCNC(=O)c1ccc(-c2cc(CN)ccn2)cc1 [Compound 1-1, 4-(4-(Aminomethyl)pyridin-2-yl)-N-(2-methoxyethyl)benzamide hydrochloride] | 
< 300 | NCc1ccnc(Oc2cccc3c2CCN3c2nc3ccc(F)cc3s2)c1 [Compound 2-33, (2-((1-(6-Fluorobenzo[d]thiazol-2-yl)indolin-4-yl)oxy)pyridin-4-yl)methanamine hydrochloride] | 
< 300 | NCc1ccnc(Oc2cccc3c2ccn3C(=O)c2ccccc2)c1 [Compound 2-24, (4-((4-(Aminomethyl)pyridin-2-yl)oxy)-1H-indol-1-yl)(phenyl)methanone hydrochloride] | 
< 300 | CN(C(=O)Cn1ccc2c(Oc3cc(CN)ccn3)cccc21)c1ccccc1 [Compound 2-30, 2-(4-((4-(Aminomethyl)pyridin-2-yl)oxy)-1H-indol-1-yl)-N-methyl-N-phenylacetamide hydrochloride] | 
< 300 | COc1ccc(-n2ccc3c(Oc4cc(CN)ccn4)cccc32)cn1 [Compound 2-20, (2-((1-(6-Methoxypyridin-3-yl)-1H-indol-4-yl)oxy)pyridin-4-yl)methanamine hydrochloride] | 
< 300 | NCc1ccnc(Oc2cccc3c2ccn3Cc2ccc(F)cn2)c1 [Compound 2-15, (2-((1-((5-Fluoropyridin-2-yl)methyl)-1H-indol-4-yl)oxy)pyridin-4-yl) methanamine hydrochloride] | 
< 300 | NCc1ccnc(Oc2cccc3c2ccn3Cc2ccc3ccccc3n2)c1 [Compound 2-16, (2-((1-(Quinolin-2-ylmethyl)-1H-indol-4-yl)oxy)pyridin-4-yl)methanamine hydrochloride] | 
< 300 | NCc1ccnc(Oc2cccc(C(=O)NCc3ccccc3)c2)c1 [Compound 1-18, 3-((4-Aminomethyl)pyridin-2-yl)oxy)-N-benzylbenzamide hydrochloride] | 
< 300 | NCc1ccnc(Oc2cccc(C(=O)Nc3ccccc3)c2)c1 [Compound 1-17, 3-((4-(Aminomethyl)pyridin-2-yl)oxy)-N-phenylbenzamide hydrochloride] | 
